# US5532234A, “Use of 1-[4-[4-aryl (or heteroaryl)-1-piperazinyl]-butyl)-1H-azole derivatives for the preparation of medicaments intended for the treatment of disorders of gastric secretion” (Laboratories Del Dr. Esteve, S.A., priority 1993, dated 1996)
# Like-named read-outs stand apart in the source and are kept apart here.
# Test system: gastric acid secretion
# Test: Inhibitory activity on gastric acid secretion, Shay Method (pylorus-ligated rats)
# Type: in vivo, male Wistar rats
# Details: Rattus norvegicus, 2 h; for ED50: read-out: ED50 (inhibition of gastric acid secretion); for inhibition in vivo at 40 mg/kg: intraduodenal, read-out: Percentage of inhibition of gastric acid secretion
# From the text: Inhibitory activity on gastric acid secretion, Shay Method [Shay, H., Komarov, S. A., Fels, S. S., Merange, D., Grvenstein, M., Siplet, H.: Gastroenterology, 5, 43 (1945)--Visscher, F. E., Seay, P. H., Taxelaar, A. P., Veldhamp, W., Vander Brook, M. J.: J. Pharmac. Exp. Ther., 110, 188 (1954)--"Animal Experiments in Pharmacological Analysis", F. R. Domer; C. C. Thomas Pub, Springfield, Ill., USA, 1970, p. 140].
# In this test, male Wistar rats weighing 200 to 250 grams are used, which rats are denied food from the day prior to that of the test, with free access to water. Batches which each contain at least 4 animals are used.
# The rats are anesthetized with ethyl ether, a laparotomy is carried out on them and their pylori are ligatured, and then the abdominal incision is stitched up. Administration of the products, with the vehicle for the control batch, is carried out intraduodenally (i.d.) before stitching up the abdominal incision. The dose administered for the first test is 40 mg/kg and the 50% effective dose (ED50) by the i.d. route is also determined in a second test. The vehicle used is 5% w/v gum arabic in doubly-distilled water.
# Two hours after ligaturing the pylorus, the rats are sacrificed by prolonged anesthesia with ethyl ether and the volume of the gastric juice is measured and the total acidity is determined using a pH meter equipped with an automatic burette. The percentage of inhibition of the gastric acid secretion is determined, with respect to the control batch, for each product and for each dose tested.
# The results obtained for some of the derivatives of the present invention are summarized, as non-limiting examples, in Table II.
# [1] = i.d. route, rats, Shay Method, two hours after pylorus ligature
# [2] = Dose = 40 mg/kg, i.d. route, rats, Shay Method, two hours after pylorus ligature
Structure (SMILES),ED50 [mg/kg],inhibition in vivo at 40 mg/kg [%],ED50 [1] [mg/kg],inhibition in vivo at 40 mg/kg [2] [%]
"CN/C(=N/CCSCc1nc[nH]c1C)NC#N [Cimetidine, reference compound]",11.5,69,,
c1cnc(N2CCN(CCCCn3cccc3)CC2)nc1 [Example 1],,,12,90
c1cnc(N2CCN(CCCCn3c4ccccc4c4ccccc43)CC2)nc1 [Example 2],,,46,44
c1cnc(N2CCN(CCCCn3ccc4ccccc43)CC2)nc1 [Example 3],,,30,63
O=C(O)c1cnn(CCCCN2CCN(c3ncccn3)CC2)c1 [Example 6],,,52,41
Cc1cc(C(F)(F)F)n(CCCCN2CCN(c3ncccn3)CC2)n1 [Example 7],,,47,40
c1ccc(-c2nc(-c3ccccc3)n(CCCCN3CCN(c4ncccn4)CC3)c2-c2ccccc2)cc1 [Example 9],,,45,35
Cc1nc(-c2ccccc2)c(-c2ccccc2)n1CCCCN1CCN(c2ncccn2)CC1 [Example 10],,,19,81
Cc1nc(Cl)c(Cl)n1CCCCN1CCN(c2ncccn2)CC1 [Example 11],,,14,81
CCc1nccn1CCCCN1CCN(c2ncccn2)CC1 [Example 12],,,52,37
c1ccc(-c2nccn2CCCCN2CCN(c3ncccn3)CC2)cc1 [Example 13],,,45,44
c1ccc(-c2cn(CCCCN3CCN(c4ncccn4)CC3)cn2)cc1 [Example 15],,,36,53
c1cnc(N2CCN(CCCCn3cnc4ccccc43)CC2)nc1 [Example 16],,,25,71
c1cnc(N2CCN(CCCCn3cnc4cccnc43)CC2)nc1 [Example 17],,,19,63
c1cnc(N2CCN(CCCCn3nnc4ccccc43)CC2)nc1 [Example 19],,,42,49
c1cnc(N2CCN(CCCCn3cncn3)CC2)nc1 [Example 21],,,4.4,71
c1cnc(N2CCN(CCCCn3nc4ccccc4n3)CC2)nc1 [Example 22],,,34,55
Cc1cc2ncn(CCCCN3CCN(c4ncccn4)CC3)c2cc1C [Example 24],,,36,59
c1cnc(N2CCN(CCCCn3cccn3)CC2)nc1 [Example 25],,,21,85
Cc1nn(CCCCN2CCN(c3ncccn3)CC2)c(C)c1[N+](=O)[O-] [Example 27],,,17,63
c1cnc(N2CCN(CCCCn3ncc4ccccc43)CC2)nc1 [Example 29],,,21,81
O=[N+]([O-])c1cnn(CCCCN2CCN(c3ncccn3)CC2)c1 [Example 31],,,2.7,90
Clc1cnn(CCCCN2CCN(c3ncccn3)CC2)c1 [Example 32],,,15,78
Cc1cc(-c2ccccc2)n(CCCCN2CCN(c3ncccn3)CC2)n1 [Example 34],,,50,45
Brc1cnn(CCCCN2CCN(c3ncccn3)CC2)c1 [Example 35],,,11,64
N#Cc1cnn(CCCCN2CCN(c3ncccn3)CC2)c1 [Example 36],,,2.1,78
Fc1cnn(CCCCN2CCN(c3ncccn3)CC2)c1 [Example 37],,,17,79
COc1ccc(-c2cnn(CCCCN3CCN(c4ncccn4)CC3)c2)cc1 [Example 44],,,31,81

Structure (SMILES),ED50 [mg/kg],inhibition in vivo at 40 mg/kg [%],ED50 [1] [mg/kg],inhibition in vivo at 40 mg/kg [2] [%]
c1ccc(-c2ccc(-c3cnn(CCCCN4CCN(c5ncccn5)CC4)c3)cc2)cc1 [Example 45],,,12,74
c1cnc(N2CCN(CCCCn3cc(-n4cccc4)cn3)CC2)nc1 [Example 46],,,9.5,92
c1ccc(-c2cnn(CCCCN3CCN(c4ncccn4)CC3)c2)cc1 [Example 47],,,11,88
CCCS(=O)(=O)Nc1cnn(CCCCN2CCN(c3ncccn3)CC2)c1 [Example 52],,,40,54
CCS(=O)(=O)Nc1cnn(CCCCN2CCN(c3ncccn3)CC2)c1 [Example 53],,,6.4,90
Clc1ncn(CCCCN2CCN(c3ncccn3)CC2)c1Cl [Example 59],,,20,75
COc1ccc(N2CCN(CCCCn3cc(Cl)cn3)CC2)cc1 [Example 60],,,26,63
COc1ccc(N2CCN(CCCCn3c(C)nc(Cl)c3Cl)CC2)cc1 [Example 61],,,13,86
COc1ccccc1N1CCN(CCCCn2cc(Cl)cn2)CC1 [Example 62],,,13,81
COc1ccccc1N1CCN(CCCCn2c(C)nc(Cl)c2Cl)CC1 [Example 63],,,10,89
COc1cccc(N2CCN(CCCCn3cc(Cl)cn3)CC2)c1 [Example 64],,,20,68
COc1ccccc1N1CCN(CCCCn2cccc2)CC1 [Example 66],,,27,65
c1ccc(N2CCN(CCCCn3cccc3)CC2)cc1 [Example 67],,,8.7,90
Clc1cnn(CCCCN2CCN(c3ccccc3)CC2)c1 [Example 68],,,13,94
Cc1nc(Cl)c(Cl)n1CCCCN1CCN(c2ccccc2)CC1 [Example 69],,,7.6,71
Cc1nc(Cl)c(Cl)n1CCCCN1CCN(c2ccccc2Cl)CC1 [Example 71],,,9.1,73
Clc1cccc(N2CCN(CCCCn3cc(Cl)cn3)CC2)c1 [Example 72],,,21,88
Cc1nc(Cl)c(Cl)n1CCCCN1CCN(c2ccccc2C#N)CC1 [Example 73],,,4.2,90
Cc1nc(Cl)c(Cl)n1CCCCN1CCN(c2ccccc2F)CC1 [Example 74],,,5,94
N#Cc1ccccc1N1CCN(CCCCn2cc(Cl)cn2)CC1 [Example 75],,,8.4,94
Cc1nc(Cl)c(Cl)n1CCCCN1CCN(c2cccc(C(F)(F)F)c2)CC1 [Example 76],,,2.1,96
FC(F)(F)c1cccc(N2CCN(CCCCn3cc(Cl)cn3)CC2)c1 [Example 77],,,9.2,82
Fc1ccccc1N1CCN(CCCCn2cc(Cl)cn2)CC1 [Example 78],,,10,87
Clc1cnn(CCCCN2CCN(c3nsc4ccccc34)CC2)c1 [Example 79],,,20,82
Cc1nc(Cl)c(Cl)n1CCCCN1CCN(c2nsc3ccccc23)CC1 [Example 80],,,7.1,88
c1ccc2c(N3CCN(CCCCn4cncn4)CC3)nsc2c1 [Example 81],,,5.2,82
c1ccc2c(c1)ncn2CCCCN1CCN(c2nsc3ccccc23)CC1 [Example 82],,,15,53
